Reference: patent US12673915B2, “Precursor compound of hexahydro-beta-acid component compound, feed composition and use thereof” (WISORIG TECHNOLOGIES PTE. LIMITED, priority 2020, dated 2026)

How the values were obtained:
Type in all cases: physicochemical
[1] = Photostability testing under illumination of 4500 Lx of ingredient and 1% premix (HPLC); conditions: 4500 Lx
Text: (§1) Preparation of a sample of 1% premix of an ingredient: 1 g of an ingredient was respectively weighed out and evenly mixed with 99 g of corncob meal in a mixer to give a sample of 1% premix of an ingredient for testing.
Photostability testing: The samples of an ingredient and 1% premix thereof were respectively spread in petri dishes to form thin layers of <5 mm, and kept under an illumination of 4500 Lx. Three replications for a sample were sampled in parallel on day 5 and day 10 for HPLC analysis.
(§2) 25.0 mg of an ingredient was accurately weighed out and dissolved in an appropriate amount of methanol by ultrasonication. The solution was then transferred to a volumetric flask and diluted to 25 mL with methanol to give a stock solution. The samples from the stock solution were diluted with methanol respectively to a concentration of 100 ppm, 500 ppm, and 1000 ppm of work solution, and then the working solutions were filtered by 0.22 μm organic membranes. Between the concentration of a sample and the response value of HPLC peak area thereof, the linearity was adjusted and detected to give a standard curve.
(§3) 2.3: Preparation of Sample Solution 25.0 mg of an ingredient and 2.0000 g of a sample of 1% premix thereof were respectively accurately weighed out, and dissolved in 25 mL of methanol by ultrasonication for 10 minutes. The resulting solutions were filtered by organic membranes and then analyzed by HPLC. 2.4: Testing Conditions for HPLC • Column: Symmetry Cis column (Waters; 250 mm*4.6 mm, 5 μm). • Mobile phase: 0.02% phosphoric acid:methanol=5:95 (v:v). • Wavelength: 235 nm. • Temperature of the Column: 25° C. • Injection volume: 10 μL. • Flow rate: 1 mL/min. 3: Results

[2] = Long-term stability in feeds at room temperature (25° C.±2° C., RH 60%±10%; HPLC)
Text: Feeds: ZUSF's premixed feed (A mixture of crushed Feed A and crushed Feed B at a weight ratio of 2:1, wherein Feed A was a 5.33% multi-premixed feed for piglets from ZUSF's Hao-Ru-Zhen-Jing, and B was a 2.67% multi-premixed feed for piglets from ZUSF's Hao-Ru-Zhen-Jing); creep feed for piglets from CP FEED; INSIGHTER's feed for broiler; 4% premixed feed from GUANGDONG CO-POWER.
Preparation of a sample of 1% premix of Ingredient: 1 g of an ingredient was respectively weighed out and evenly mixed with 99 g of corncob meal in a mixer to give a sample of 1% premix of an ingredient.
Preparation of a sample of 500 ppm feed of an ingredient: The sample of 1% premix of an ingredient was diluted step by step using the ZUSF's remixed feed to 5000 ppm and 500 ppm to give the sample of 500 ppm feed of an ingredient for later testing.
Preparation of a sample of 100 ppm feed of an ingredient: sample of 1% premix of an ingredient was diluted step by step using the creep feed for piglets from CP FEED to 1000 ppm and then 100 ppm to give the sample of 100 ppm feed of an ingredient for later testing.
Preparation of a sample of 100 ppm feed of an ingredient: The sample of 1% premix of an ingredient was diluted step by step using the INSIGHTER's feed for broiler to 1000 ppm and 100 ppm to give the sample of 100 ppm feed of an ingredient for later testing.
Preparation of a sample of 2000 ppm feed of an ingredient: The sample of 1% premix of an ingredient was diluted step by step using the 4% premixed feed from GUANGDONG CO-POWER to 5000 ppm and 2000 ppm to give the sample of 2000 ppm feed of an ingredient for later testing.
Method: Three replications of each feed sample were tested at the condition of 25° C.±2° C. and RH 60%±10%, wherein the replications of each feed sample were sampled in parallel for HPLC analysis on day 5, day 10, day 15, day 30, day 60, and day 90.
25.0 mg of an ingredient was accurately weighed out and dissolved in an appropriate amount of methanol or n-hexane by ultrasonication. The solution was then transferred to a volumetric flask and diluted to 50 mL to give a 500 ppm (by wt.) stock solution. The samples from the stock solution were diluted with methanol or n-hexane respectively to a concentration of 10 ppm, 25 ppm, 50 ppm, 100 ppm, and 250 ppm of work solution, and then the working solutions were filtered by 0.22 μm organic membranes. Between the concentration of a sample and the response value of HPLC peak area thereof, the linearity was adjusted and detected to give a standard curve.
5.0000 g of the samples sampled at different time intervals were respectively accurately weighed out, and dissolved in 25 mL of methanol or n-hexane by ultrasonication for 10 minutes. The resulting solutions were filtered by organic membranes and then analyzed by HPLC.
• Equipment: Waters e2695 with PDA detector. • Mobile phase: 0.02% phosphoric acid:methanol=5:95 (v:v). • Column: Symmetry Cis column (Waters; 250 mm×4.6 mm, 5 μm). • Wavelength: 235 nm. • Temperature of the Column: 25° C. • Injection volume: 10 μL. • Flow rate: 1 mL/min. Normal Phase Chromatography: • Equipment: Shimadzu LC-14C/SPD-15C. • Column: SuperSil NH2 column ([…]; 250 mm×4.6 mm). • Mobile phase: n-hexane:isopropanol=60:40 (v:v). • Wavelength: 235 nm. • Temperature of the Column: 25° C. • Injection volume: 20 μL. • Flow rate: 1 mL/min. 3: Results

[3] = Thermal stability testing at 60° C. of ingredient and 1% premix (HPLC)
Method: as §1
Thermal stability testing at 60° C.: The samples of an ingredient and 1% premix thereof were respectively spread in petri dishes to form thin layers of <5 mm, and kept at 60° C. Two replications for a sample were taken in parallel on day 5 and day 10 for HPLC analysis.
as §2, §3

[4] = 1% Premix of an ingredient (corncob meal), Day 5
[5] = 1% Premix of an ingredient (corncob meal), Day 10

Compound: CCC(=O)OC1=C(CCC(C)C)C(=O)C(CCC(C)C)(CCC(C)C)C(O)=C1C(=O)C(C)C [hexahydro-colupulone mono-propionate]
- Residual amount of active ingredient [1, 4]: 98.87%
- Residual amount of active ingredient [1, 5]: 98.10%
- Residual amount of active ingredient ([1]; Ingredient, Day 5): 98.90%
- Residual amount of active ingredient ([1]; Ingredient, Day 10): 98.70%
- Residual amount of active ingredient ([2]; 100 ppm in INSIGHTER's broiler feed, Day 5): 99.45%
- Residual amount of active ingredient ([2]; 100 ppm in INSIGHTER's broiler feed, Day 15): 99.37%
- Residual amount of active ingredient ([2]; 100 ppm in INSIGHTER's broiler feed, Day 30): 99.19%
- Residual amount of active ingredient ([2]; 100 ppm in INSIGHTER's broiler feed, Day 60): 99.72%
- Residual amount of active ingredient ([2]; 100 ppm in creep feed for piglets from CP FEED, Day 5): 100.54%
- Residual amount of active ingredient ([2]; 100 ppm in creep feed for piglets from CP FEED, Day 15): 100.97%
- Residual amount of active ingredient ([2]; 100 ppm in creep feed for piglets from CP FEED, Day 30): 97.62%
- Residual amount of active ingredient ([2]; 100 ppm in creep feed for piglets from CP FEED, Day 60): 98.08%
- Residual amount of active ingredient ([2]; 100 ppm in creep feed for piglets from CP FEED, Day 90): 96.99%
- Residual amount of active ingredient ([2]; 500 ppm in ZUSF's premixed feed, Day 5): 98.36%
- Residual amount of active ingredient ([2]; 500 ppm in ZUSF's premixed feed, Day 15): 96.77%
- Residual amount of active ingredient ([2]; 500 ppm in ZUSF's premixed feed, Day 30): 94.17%
- Residual amount of active ingredient ([2]; 500 ppm in ZUSF's premixed feed, Day 60): 95.88%
- Residual amount of active ingredient ([2]; 500 ppm in ZUSF's premixed feed, Day 90): 95.73%
- Residual amount of active ingredient ([2]; 2000 ppm in 4% premixed feed from GUANGDONG CO-POWER, Day 5): 97.48%
- Residual amount of active ingredient ([2]; 2000 ppm in 4% premixed feed from GUANGDONG CO-POWER, Day 15): 96.12%
- Residual amount of active ingredient ([2]; 2000 ppm in 4% premixed feed from GUANGDONG CO-POWER, Day 30): 96.28%
- Residual amount of active ingredient ([2]; 2000 ppm in 4% premixed feed from GUANGDONG CO-POWER, Day 60): 95.87%
- Residual amount of active ingredient ([2]; 2000 ppm in 4% premixed feed from GUANGDONG CO-POWER, Day 90): 95.90%
- Residual amount of active ingredient [3, 4]: 98.27%
- Residual amount of active ingredient [3, 5]: 97.91%
- Residual amount of active ingredient ([3]; Ingredient, Day 5): 99.40%
- Residual amount of active ingredient ([3]; Ingredient, Day 10): 99.26%
